Eleven molecules from article PMC8897968 (European Journal of Medicinal Chemistry, 2022) can be followed below.

For one data set, the system named is rabies virus CVS strain. Description: microbe, parasite or virus in culture. The data set is classed as cell-based. To be noted: for IC50: Lyssavirus rabies, read-out: IC50 values (anti-rabies, as worded in the text).
Another data set concerns BSR cells. Briefly: Cytotoxicity in BSR cells. The conditions noted are these: Cytotoxic concentration required to inhibit BSR cell growth by 50%.
The subject of a further data set is pSARS-CoV-2. The data set is classed as cell-based, SARS-CoV-2.
A further data set relates to Huh 7 cells. Briefly: Cytotoxicity in Huh 7 cells. The conditions noted are these: Cytotoxic concentration required to inhibit Huh 7 cell growth by 50%.
The target of the next data set is rabies virus G protein (Rabies virus, UniProt O92284). Description: biochemical. The data set is classed as binding.
Data set [1] can be described thus: Cytotoxicity in Huh 7 cells. To be noted: human, Huh 7 cells.
The next data set deals with Kunming mice. Briefly: Acute toxicity test in Kunming mice. To be noted: oral, single dose, monitored for 7 days.

Sequence of rabies virus G protein (O92284 20-459 limits assumed): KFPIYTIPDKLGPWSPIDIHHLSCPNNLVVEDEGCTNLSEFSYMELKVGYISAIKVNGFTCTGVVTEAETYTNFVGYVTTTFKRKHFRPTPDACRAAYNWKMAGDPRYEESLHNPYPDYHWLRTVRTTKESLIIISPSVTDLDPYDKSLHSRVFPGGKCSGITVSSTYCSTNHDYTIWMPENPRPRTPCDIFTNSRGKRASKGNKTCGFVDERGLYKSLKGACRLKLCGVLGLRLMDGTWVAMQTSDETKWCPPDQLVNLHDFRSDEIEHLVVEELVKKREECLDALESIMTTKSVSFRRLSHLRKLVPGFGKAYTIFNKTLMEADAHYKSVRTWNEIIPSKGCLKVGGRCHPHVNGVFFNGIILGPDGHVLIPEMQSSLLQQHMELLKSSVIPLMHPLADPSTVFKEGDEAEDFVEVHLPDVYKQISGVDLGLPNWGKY

For the molecule “2-Benzyl-3-imino-5-phenyl-3,5-dihydrophenazine [Compound 6l]”, in the data set with rabies virus CVS strain, the EC50 came to 35400 nM. The same molecule came in with a CC50 in the data set with BSR cells of 35400 nM. Take “2-p-fluoroanilino-3-isopropylimino-5-p-chlorophenyl-3,5-dihydrophenazine [Compound 15a]”: the EC50 was 4020 nM in the data set with rabies virus CVS strain and 29600 nM in the data set on pSARS-CoV-2. Besides, the results for the CC50 in the data set with BSR cells and in the data set with Huh 7 cells were above 200000 nM and 17000 nM, respectively.

With `CC(C)/N=c1\cc2n(-c3ccc(Cl)cc3)c3ccccc3nc-2cc1Nc1ccc(Cl)cc1` [Compound 1, clofazimine, reference compound], binding at rabies virus G protein was put at a Kd of 730 nM. `CC(C)/N=c1\cc2n(-c3ccc(Cl)cc3)c3ccccc3nc-2cc1Nc1ccc(OC(F)(F)F)cc1` [Compound 7i, 2-p-Trifluoromethoxyanilino-3-isopropylimino-5-p-chlorophenyl-3,5-dihydro phenazine]: in the data set on rabies virus CVS strain, the IC50 turned out to be 1770 nM. As for `CC(C)/N=c1\cc2n(-c3ccc(Cl)cc3)c3ccccc3nc-2cc1NCc1ccc(Cl)cc1` [Compound 7k, 2-p-Chlorobenzylamino-3-isopropylimino-5-p-chlorophenyl-3,5-dihydrophena zine], the IC50 with rabies virus CVS strain came to 760 nM. As for `CC(C)/N=c1\cc2n(-c3ccccc3)c3ccccc3nc-2cc1Nc1ccc(Cl)cc1` [Compound 7l], the IC50 in the data set on rabies virus CVS strain stood at 1400 nM. Turning to `CC(C)/N=c1\cc2n(-c3ccccc3)c3ccccc3nc-2cc1NCc1ccccc1` [Compound 7p, 2-Benzylamino-3-isopropylimino-5-phenyl-3,5-dihydrophenazine], in the data set on rabies virus CVS strain, the IC50 was determined as 1400 nM. Regarding `CC(C)/N=c1\cc2n(-c3ccccc3)c3ccccc3nc-2cc1NCc1ccc(F)cc1` [Compound 7q, 2-p-Fluorobenzylamino-3-isopropylimino-5-phenyl-3,5-dihydrophenazine], the IC50 in the data set with rabies virus CVS strain was 1900 nM. On to `CC(C)/N=c1\cc2n(-c3ccc(F)cc3)c3ccccc3nc-2cc1Nc1ccc(F)cc1` [Compound 15b], for which the CC50 at 24 h in data set [1] is above 200000 nM.

As for `COc1ccc(-n2c3c/c(=N\C(C)C)c(Nc4cccc(F)c4)cc-3nc3ccccc32)cn1` [Compound 15f, 2-m-Fluoroanilino-3-isopropylimino-5-(6-methoxy-3-pyridinyl)-3,5-dihydro phenazine], the IC50 in the data set with rabies virus CVS strain stood at 1450 nM. Besides, binding at rabies virus G protein was put at a Kd of 280 nM. Besides, the “median lethal dose (LD50)” value in the data set on Kunming mice was “over 800 mg•kg^−1”. Consider `COc1ccc(-n2c3c/c(=N\C(C)C)c(Nc4ccc(F)cc4)cc-3nc3ccccc32)cn1` [Compound 15g, 2-p-Fluoroanilino-3-isopropylimino-5-(6-methoxy-3-pyridinyl)-3,5-dihydro phenazine], for which, in the data set on rabies virus CVS strain, the IC50 was 1410 nM. Also, in the data set with Kunming mice, the “median lethal dose (LD50)” value is recorded as “over 800 mg•kg^−1”.
